How the values were obtained:
[1] = test system: primary murine T-cells; assay: Cytokine secretion on protein level in activated primary murine T-cells (13-plex FACS / Luminex, supernatant); assay type: cell-based, C57BL/6 mice; conditions: for IL-1 cytokine concentration / IL-2 cytokine concentration / IL-4 cytokine concentration / IL-5 cytokine concentration / IL-6 cytokine concentration / IL-10 cytokine concentration / IL-13 cytokine concentration / IL-17 cytokine concentration / IL-21 cytokine concentration / IL-22 cytokine concentration / IL-27 cytokine concentration / TNF-α cytokine concentration / IFN-γ cytokine concentration: substance 10^−9M
Outline: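 T-cells from secondary lymphatic organs of naïve C57BL/6 mice, stimulated with PMA/Ionomycin or IFN-γ; supernatant cytokines measured by 13-plex FACS 48 h and 72 h after stimulation. In another run, PMA/Ionomycin-stimulated cells received compounds at 10^−7, 10^−9 and 10^−11 M, with IFN-γ, IL-17 and IL-10 measured by Luminex.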

[2] = test system: human keratinocyte cell line (HaCaT); assay: Cytokine secretion on protein level in activated human keratinocyte cell line HaCaT (13-plex FACS / Luminex, supernatant); assay type: cell-based; conditions: substance 10^−9M
Outline: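 Cytokine protein in supernatant is read by multiplex FACS or Luminex. Tripeptide-treated HaCaT cells or blood-derived human T-cells are stimulated beforehand with PMA/Ionomycin or IFN-γ. The most relevant analytes are IL-1, IL-2, IL-6, IL-12p70, IL-17, IFN-γ and TNF-α, sampled 48 h and 72 h after stimulation.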

[3] = test system: primary human T-cells; assay: Cytokine secretion on protein level in activated primary human T-cells (13-plex FACS / Luminex, supernatant); assay type: cell-based; conditions: for IL-1 cytokine concentration / IL-2 cytokine concentration / IL-4 cytokine concentration / IL-5 cytokine concentration / IL-6 cytokine concentration / IL-9 cytokine concentration / IL-10 cytokine concentration / IL-12p70 cytokine concentration / IL-13 cytokine concentration / IL-17 cytokine concentration / IL-22 cytokine concentration / TNF-α cytokine concentration / INF-α cytokine concentration: substance 10^−9M
Outline: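 Stimulus: PMA/Ionomycin or IFN-γ, 48 h; cells: HaCaT or human peripheral-blood T-cells; tripeptide treatment; readout: supernatant cytokines via 13-plex FACS or Luminex, 48–72 h post-stimulation.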

[4] = primary murine T-cells stimulated with IFN-γ
[5] = primary murine T-cells stimulated with PBS
[6] = primary murine T-cells stimulated with PMA/Ionomycin
[7] = HaCaT stimulated with PMA/Ionomycin
[8] = primary human T-cells stimulated with IFN-γ
[9] = primary human T-cells stimulated with PBS
[10] = primary human T-cells stimulated with PMA/Ionomycin

## N^α,N^α-dimethyl-(L)-Phe-(D)-Pro-N^α-methyl-(L)-Thr-OH [Example 7]
[1]; activated primary murine T-cells
  secretion / expression of pro-inflammatory cytokines (supernatant): immunomodulatory effects were seen
[1]; [4]
  IL-1 cytokine concentration: 88.23 pg/mL
  IL-2 cytokine concentration: 98.22 pg/mL
  IL-4 cytokine concentration: 40.87 pg/mL
  IL-5 cytokine concentration: 265.4 pg/mL
  IL-6 cytokine concentration: 123.98 pg/mL
  IL-10 cytokine concentration: 1199.53 pg/mL
  IL-13 cytokine concentration: 0 pg/mL
  IL-17 cytokine concentration: 84.26 pg/mL
  IL-21 cytokine concentration: 0 pg/mL
  IL-22 cytokine concentration: 50.37 pg/mL
  IL-27 cytokine concentration: 0 pg/mL
  TNF-α cytokine concentration: 25.58 pg/mL
[1]; [5]
  IFN-γ cytokine concentration: 0 pg/mL
  IL-1 cytokine concentration: 62.38 pg/mL
  IL-2 cytokine concentration: 137.05 pg/mL
  IL-4 cytokine concentration: 60.56 pg/mL
  IL-5 cytokine concentration: 317.47 pg/mL
  IL-6 cytokine concentration: 129.26 pg/mL
  IL-10 cytokine concentration: 1283.71 pg/mL
  IL-13 cytokine concentration: 0 pg/mL
  IL-17 cytokine concentration: 0 pg/mL
  IL-21 cytokine concentration: 0 pg/mL
  IL-22 cytokine concentration: 15.86 pg/mL
  IL-27 cytokine concentration: 61.43 pg/mL
  TNF-α cytokine concentration: 53.67 pg/mL
[1]; [6]
  IFN-γ cytokine concentration: 1916.21 pg/mL
  IL-1 cytokine concentration: 154.26 pg/mL
  IL-2 cytokine concentration: 99.71 pg/mL
  IL-4 cytokine concentration: 99.12 pg/mL
  IL-5 cytokine concentration: 246.42 pg/mL
  IL-6 cytokine concentration: 184.98 pg/mL
  IL-10 cytokine concentration: 1233.22 pg/mL
  IL-13 cytokine concentration: 0 pg/mL
  IL-17 cytokine concentration: 67.92 pg/mL
  IL-21 cytokine concentration: 0 pg/mL
  IL-22 cytokine concentration: 71.09 pg/mL
  IL-27 cytokine concentration: 90.15 pg/mL
  TNF-α cytokine concentration: 40.87 pg/mL
[2]; HaCaT stimulated with IFN-γ
  IL-1 cytokine concentration: 109.65 pg/mL
  IL-2 cytokine concentration: 267.78 pg/mL
  IL-4 cytokine concentration: 0 pg/mL
  IL-5 cytokine concentration: 0 pg/mL
  IL-6 cytokine concentration: 470.44 pg/mL
  IL-9 cytokine concentration: 14.88 pg/mL
  IL-10 cytokine concentration: 0 pg/mL
  IL-12p70 cytokine concentration: 0 pg/mL
  IL-13 cytokine concentration: 1843.69 pg/mL
  IL-17 cytokine concentration: 202.45 pg/mL
  IL-22 cytokine concentration: 0 pg/mL
  TNF-α cytokine concentration: 0 pg/mL
[2]; HaCaT stimulated with PBS
  IFN-γ cytokine concentration: 0 pg/mL
  IL-1 cytokine concentration: 181.03 pg/mL
  IL-2 cytokine concentration: 180.91 pg/mL
  IL-4 cytokine concentration: 0 pg/mL
  IL-5 cytokine concentration: 113.28 pg/mL
  IL-6 cytokine concentration: 119.59 pg/mL
  IL-9 cytokine concentration: 0 pg/mL
  IL-10 cytokine concentration: 0 pg/mL
  IL-12p70 cytokine concentration: 0 pg/mL
  IL-13 cytokine concentration: 1910.22 pg/mL
  IL-17 cytokine concentration: 0 pg/mL
  IL-22 cytokine concentration: 0 pg/mL
  TNF-α cytokine concentration: 21.66 pg/mL
[2]; [7]
  IFN-γ cytokine concentration: 450.42 pg/mL
  IL-1 cytokine concentration: 0 pg/mL
  IL-2 cytokine concentration: 218.82 pg/mL
  IL-4 cytokine concentration: 112.94 pg/mL
  IL-5 cytokine concentration: 88.67 pg/mL
  IL-6 cytokine concentration: 359.17 pg/mL
  IL-9 cytokine concentration: 14.57 pg/mL
  IL-10 cytokine concentration: 64.01 pg/mL
  IL-12p70 cytokine concentration: 0 pg/mL
  IL-13 cytokine concentration: 1877.03 pg/mL
  IL-17 cytokine concentration: 209.12 pg/mL
  IL-22 cytokine concentration: 0 pg/mL
  TNF-α cytokine concentration: 0 pg/mL
[3]; activated primary human T-cells
  secretion / expression of pro-inflammatory cytokines (supernatant): immunomodulatory effects were seen
[3]; [8]
  IL-1 cytokine concentration: 0 pg/mL
  IL-2 cytokine concentration: 0 pg/mL
  IL-4 cytokine concentration: 83.34 pg/mL
  IL-5 cytokine concentration: 0 pg/mL
  IL-6 cytokine concentration: 56.38 pg/mL
  IL-9 cytokine concentration: 0 pg/mL
  IL-10 cytokine concentration: 69.21 pg/mL
  IL-12p70 cytokine concentration: 0 pg/mL
  IL-13 cytokine concentration: 59.7 pg/mL
  IL-17 cytokine concentration: 0 pg/mL
  IL-22 cytokine concentration: 0 pg/mL
  TNF-α cytokine concentration: 0 pg/mL
[3]; [9]
  IL-1 cytokine concentration: 154.31 pg/mL
  IL-2 cytokine concentration: 126.59 pg/mL
  IL-4 cytokine concentration: 0 pg/mL
  IL-5 cytokine concentration: 8.58 pg/mL
  IL-6 cytokine concentration: 122.64 pg/mL
  IL-9 cytokine concentration: 13.42 pg/mL
  IL-10 cytokine concentration: 121.25 pg/mL
  IL-12p70 cytokine concentration: 0 pg/mL
  IL-13 cytokine concentration: 0 pg/mL
  IL-17 cytokine concentration: 95.69 pg/mL
  IL-22 cytokine concentration: 0 pg/mL
  INF-α cytokine concentration: 69.17 pg/mL
  TNF-α cytokine concentration: 51.46 pg/mL
[3]; [10]
  IL-1 cytokine concentration: 508.96 pg/mL
  IL-2 cytokine concentration: 1650.58 pg/mL
  IL-4 cytokine concentration: 72.07 pg/mL
  IL-5 cytokine concentration: 357.88 pg/mL
  IL-6 cytokine concentration: 1100.07 pg/mL
  IL-9 cytokine concentration: 263.36 pg/mL
  IL-10 cytokine concentration: 842.93 pg/mL
  IL-12p70 cytokine concentration: 0 pg/mL
  IL-13 cytokine concentration: 991.61 pg/mL
  IL-17 cytokine concentration: 2611.96 pg/mL
  IL-22 cytokine concentration: 0 pg/mL
  INF-α cytokine concentration: 6989.26 pg/mL
  TNF-α cytokine concentration: 2062.57 pg/mL
